Results reported in patent EP1733731A1, “New uses of Glycerol derivatives in particular in cosmetics” (AGRO INDUSTRIE RECHERCHES ET DEVELOPPEMENTS (A.R.D.), priority 2005, dated 2006).

What was measured:
MMP-2 = target: T1, MMP-2 (Homo sapiens, UniProt P08253); experiment: MMP-2 activity on fluorescent synthetic substrate; assay type: biochemical; settings: 25 µg/mL
T1 construct: La proMMP-2 recombinante (12,5 ng/mL) est activée par l'APMA 10 mM pendant 16 heures à 4°C
T1 sequence (P08253 110-660): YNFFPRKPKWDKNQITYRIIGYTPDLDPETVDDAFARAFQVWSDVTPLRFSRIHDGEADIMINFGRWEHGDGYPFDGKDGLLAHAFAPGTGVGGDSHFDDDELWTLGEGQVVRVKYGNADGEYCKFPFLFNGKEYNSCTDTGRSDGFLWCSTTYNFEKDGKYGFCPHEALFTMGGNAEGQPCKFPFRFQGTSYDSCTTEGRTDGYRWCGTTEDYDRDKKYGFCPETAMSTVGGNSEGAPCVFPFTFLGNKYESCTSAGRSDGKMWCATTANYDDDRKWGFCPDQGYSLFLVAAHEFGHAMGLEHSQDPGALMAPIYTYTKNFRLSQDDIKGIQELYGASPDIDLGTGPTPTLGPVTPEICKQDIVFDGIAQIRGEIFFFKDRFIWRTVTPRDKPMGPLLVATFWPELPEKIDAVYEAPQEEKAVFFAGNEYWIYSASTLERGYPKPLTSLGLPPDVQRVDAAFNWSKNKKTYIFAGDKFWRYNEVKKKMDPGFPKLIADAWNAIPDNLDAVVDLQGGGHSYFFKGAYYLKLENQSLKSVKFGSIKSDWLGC
Source text: L'inhibition de l'activité des gélatinases MMP-2 et MMP-9 par les acides gras insaturés à longue chaîne a pu être montré sur des coupes de peau. Ce phénomène implique à la fois des domaines spécifiques des gélatinases : les "Collagen Binding Domain" (CBD) et la double liaison des acides gras. L'interaction entre les gélatinases, via ces sites particuliers que sont les exosites (CBD), et l'acide gras, via son insaturation, entraîne une perte d'activité des gélatinases in vitro comme in vivo. La présence de double liaisons au niveau des chaînes latérales de ces glycolipides a conduit à cribler l'ensemble des composés de l'invention sur l'activité de la gélatinase-A ou MMP-2, car cette enzyme, bien qu'elle ne soit pas surexprimée au cours des vieillissements par les cellules dermiques, participe à la dégradation du tissu élastique responsable de la formation de rides. […]
La proMMP-2 recombinante (12,5 ng/mL) est activée par l'APMA 10 mM pendant 16 heures à 4°C puis préincubée 10 min en présence des différentes fractions et composés à tester : le substrat synthétique spécifique de la MMP-2 (Référence : M-1895, Bachem) est ensuite ajouté, à la concentration de 2 µM. Le clivage de ce substrat est estimé par mesure de la fluorescence émise après clivage (λexc = 326 nm; λem = 465 nm), à raison d'une lecture toutes les 2 minutes pendant 30 minutes. […]

[1] = tested on: kératinocytes et fibroblastes dermiques; experiment: degradation of a fluorescein-labelled type I collagen layer in a UV-A skin photo-ageing co-culture model; assay type: cell-based; settings: 10 J.cm^-2 UV-A, 15 µg/mL plasminogen, 48 h, versus control without active, read-out: inhibition de ce "vieillissement cutané" (dégradation du tapis de collagène)

MMP-2 (Vi/Vo) (MMP-2): > 1
SMILES: CCCCC/C=C\C/C=C\CCCCCCCCOC[C@H](CO[C@@H]1O[C@H](COC(=O)CCCCCCCCCCCCCCC)[C@H](O)[C@H](O)[C@H]1O)OCCCCCCCC/C=C\C/C=C\CCCCC [ED23-11, 1,2-di-O-linoléyl-3-O-[6'-O-palmitoyl-β-D-galactopyranosyl]-sn-glycérol]
inhibition at 25 µg/mL [1]: 70%
